# Test results published in US20260076988A1 (The Cleveland Clinic Foundation, priority 2019, published 2026).
# Entries after “also recorded” stand apart in the source; their conditions may differ.
# Key:
# [1] = tested on: F1339 p53-null SCLC cells; assay: F1339 SCLC cells in vitro: proliferation, apoptosis, differentiation; format: cell-based, murine
# Experimental: (§1) FIG. 2. […] F1339 p53-null cancer cells were seeded at D0 and treated with DMSO, deoxycytidine (DC, 0.5 μM), cytidine (CY, 5 μM), Dec (0.5 μM) and 5Aza (5 μM). […] Cell counts by automated counter, mean±SD. […] Gene expression by Q-PCR, median±interquartile range (IQR) (3 biological replicates), *p<0.05, **p<0.01. 2-sided Mann-Whitney test. […] Western blot.
# [2] = tested on: Dck, Uck2, Cda and Cad; assay: F1339 cells: pyrimidine metabolism enzyme expression by QRT-PCR and Western blot; format: cell-based, murine
# Experimental: as §1
# RNA was extracted using Trizol reagent (Invitrogen) before the generation of complementary DNA using the iScript™ cDNA Synthesis Kit (Bio-rad). Quantitative PCR was run on StepOnePlus Real-Time PCR System (Applied Biosystems), using comparative Ct value method to quantify the expression of target genes in different samples. Gene expression was normalized to the housekeeping gene β-actin.
# Tumor cells were lysed with RIPA lysis buffer and protein concentrations determined by BCA protein assay kit (Thermo Fisher Scientific). Samples with equal quantity (40 μg) of total protein were mixed with 4× loading buffer and 10× sample reducing reagent (Thermo Fisher Scientific), subjected to electrophoresis on a 12% (v/v) SDS-polyacrylamide gel, then transferred onto polyvinylidene fluoride membranes. After blocking with 5% dried skimmed milk, the membranes were washed three times and incubated with primary antibodies at 4° C. overnight. After washing, the membranes were further incubated with corresponding horseradish peroxidase-conjugated secondary antibodies. The membranes were then treated with Pierce™ ECL substrates (Thermo Scientific) then visualized using X-ray film.
# [3] = tested on: LL3 lung cancer cells; assay: Syngeneic disseminated lung cancer model (LL3, tail vein); format: in vivo, C57BL/6 mice; details: treatment from day 21; Dec 0.2, THU-Dec 10/0.1, 5Aza 2, THU-5Aza 10/1 mg/kg sc 3×/wk
# Description: (§2) 2-sided Mann-Whitney test.
# as §2, §2
# [4] = tested on: DNMT1; assay: Serial patient bone marrow biopsies, DNMT1 immunohistochemistry; format: in vivo, human
# Description: (§3) Serial bone marrow biopsies from the same patient were cut onto the same slide, stained for DNMT1, and the number of DNMT1-positive nuclei was quantified objectively using ImageIQ software in 13 patients and positive/negative controls (tissue blocks of HCT116 wild-type and DNMT1-knockout cells respectively). D=days of therapy. Pre-Rx=pre-treatment; HI=hematologic improvement; CR=complete remission; SD=stable disease; Rel.=relapse. Mean±SD of ×3 image segments (cellular regions) per sample; p-value paired t-test, 2-sided. C) Expression of key pyrimidine metabolism enzymes at relapse/progression on Dec. […] Bone marrow cells aspirated pre-treatment and at relapse/progression on Dec (13 patients, median duration of therapy 175 days, range 97-922) or 5Aza (14 patients, median duration of therapy 433 days, range 61-1155) were analyzed by QRT-PCR. Mean±SD technical replicates×3. Paired t-test, 2-sided. D) Expression by Western blot of DNMT1 and key pyrimidine metabolism enzymes in Dec-resistant AML cells (THP1, K562, OCI-AML3 and MOLM13), and in parental THP1 AML cells treated with vehicle, Dec or 5-azacytidine (5Aza). Western blots.
# (§4) Study approvals. Bone marrow samples for research were obtained from patients with AML (Acute myeloid leukemia) with written informed consent on a study protocol approved by the Cleveland Clinic Institutional Review Board (Cleveland, Ohio). Murine experiments were approved by the Cleveland Clinic Institutional Animal Care and Use Committee (Cleveland, Ohio). Sources of cell lines and animals. […] DNMT1 Immuno-detection and quantitation: Immunohistochemistry (IHC) was performed on decalcified and formalin-fixed paraffin embedded bone marrow biopsy sections (4 μm) and on positive and negative controls (parental and DNMT1-KO HCT116 cells). […] Nuclei positive for DNMT1 were identified and quantified in high resolution, large field-of-view images per ImageIQ algorithms (Image IQ Inc., Cleveland, OH) after segmentation of images and subtraction of bone as has been previously described^4.
# [5] = tested on: DCK, UCK2, CDA and CAD; assay: Patients' bone marrow enzyme expression pre-treatment vs relapse, QRT-PCR; format: in vivo, human; details: MDS patients' bone marrow
# Description: as §3
# DNA isolation, reverse transcription (RT) and real-time PCR. As previously described^59. Primer sequences were:
# CAD increased an average of ˜8-fold at relapse on either pro-drug, but not in all patients (FIG. 23C). The proliferation marker MKI67 increased at relapse in almost all the patients, consistent with active progression of disease (FIG. 23C).
# [6] = tested on: parental HAP1 leukemia cells; assay: Growth inhibition of parental HAP1 leukemia cells; format: cell-based; details: Homo sapiens, HAP1; parental cells; read-out: GI50 (concentration for 50% growth inhibition)
# Description: (§5) A) DCK and UCK2 knockout (KO) were confirmed by Western blot. HAP1 leukemia cells, KO by CRISPR-Cas9. B) DCK-KO lowers dCTP and UCK2-KO lowers dTTP. Analysis of independent nucleotide extractions. Means±SD; p-values unpaired t-test, 2-sided. C) Sensitivity of Wildtype, DCK-KO and UCK2-KO HAP1 leukemia cells to Dec vs 5Aza. Means±SD of 3 independent biological replicates.
# as §4
# [7] = tested on: DCK-knockout HAP1 leukemia cells; assay: Growth inhibition of DCK-knockout HAP1 leukemia cells; format: cell-based; details: Homo sapiens, HAP1; DCK-knockout cells; read-out: GI50 (concentration for 50% growth inhibition)
# Description: as §5, §4
# [8] = tested on: UCK2-knockout HAP1 leukemia cells; assay: Growth inhibition of UCK2-knockout HAP1 leukemia cells; format: cell-based; details: Homo sapiens, HAP1; UCK2-knockout cells; read-out: GI50 (concentration for 50% growth inhibition)
# Description: as §5, §4
# [9] = in vivo; cited from earlier work
# [10] = tested on: DCK; details: leukemia cells, within 48 hours; cited from earlier work
smiles,measurement,setting,value
Nc1ncn([C@@H]2O[C@H](CO)[C@@H](O)[C@H]2O)c(=O)n1 [5-azacytidine],cell membrane Annexin-V staining (apoptosis-induction),[1]; 24 hours after initiation of drug exposure,unaltered cell membrane Annexin-V staining
same,morphologic changes of differentiation,[1]; Giemsa-stained cytospins Day 5,induced morphologic changes in the cells consistent with differentiation induction
same,Myc protein,[1]; Western blot Day 5,decreased Myc protein
same,p27/CDKN1B protein,[1]; Western blot Day 5,increased p27/CDKN1B protein
same,F1339 proliferation,"[1]; decitabine 0.5 μM, 5-azacytidine 5 μM, cytarabine 0.5 μM",significantly decreased F1339 proliferation; also recorded: did significantly impede the SCLC cell proliferation
same,"expression of Dck, Uck2, Cda and Cad","[2]; decitabine 0.5 μM, 5-azacytidine 5 μM","increased Dck, Cda and Cad expression several-fold"
same,CAD upregulation,[2]; lung cancer cells,~2 fold
same,DCK upregulation,[2]; lung cancer cells,~3 fold
same,increase of time-to-distress over vehicle,[3],about 20 days
same,DNMT1 protein at time-of-relapse on-therapy,[4],rebounded to levels comparable to pre-treatment levels
same,decrease of DNMT1 protein at time-of-response compared to pre-treatment,[4]; 13 patients,~50%
same,decrease of CDA expression at relapse,[5],~50%
same,decrease of UCK2 expression at relapse,[5],~50%
same,increase of DCK expression at relapse,[5],~8 fold
same,average increase of CAD expression at relapse,[5]; not in all patients,~8 fold
same,GI50,[6],4 µM
same,GI50,[7],2 µM
same,GI50,[8],15 µM
same,in vivo plasma half-life,[9],~15 min
same,DCK upregulation,[10],~30%
